The test system of this experiment is human umbilical vein endothelial cells (HUVECs). The settings on record: confluent HUVECs, single bolus of physiologic levels of H2O2, 5 hr. The procedure: HUVECs were treated with the indicated concentrations of H2O2 for 5 hours. The cells were harvested and the proteoglycans isolated and analyzed by Western blotting for lumican and biglycan.
Since lumican proteoglycan is deposited at enhanced levels in atherosclerosis-prone arteries, it is possible that lumican proteoglycan is generated by cultured human umbilical vein endothelial cells (HUVECs). The production of lumican proteoglycan by cultured human umbilical vein endothelial cells (HUVECs) was examined in vitro. Confluent HUVECs in complete media with serum and growth supplements were treated with a single bolus addition of varying concentrations of H2O2. After 5 hr the cells were washed and harvested as described previously (Kattapuram et al. (2005) Journal of Biological Chemnistry 280, 15340-15347). The proteoglycans were then extracted, isolated and analyzed by immunoblotting for lumican and biglycan.

On to `OO` [H2O2, Hydrogen Peroxide], for which the “upregulation of biglycan (immunoblot)” value is listed as “no upregulation”. Also, the “upregulation of Lumican-PG100 (immunoblot)” value (vs resting conditions) was “substantial upregulation”.
